Biological target: human cardiac Na+ channel alpha subunit (SCN5A, hH1) (Homo sapiens, UniProt Q14524)
Experiment: whole-cell patch clamp, use-dependent block at […] external
Format: cell-based
Details: read-out: % use-dependent block at 10 μM

human cardiac Na+ channel alpha subunit (SCN5A, hH1), sequence (Q14524 whole entry): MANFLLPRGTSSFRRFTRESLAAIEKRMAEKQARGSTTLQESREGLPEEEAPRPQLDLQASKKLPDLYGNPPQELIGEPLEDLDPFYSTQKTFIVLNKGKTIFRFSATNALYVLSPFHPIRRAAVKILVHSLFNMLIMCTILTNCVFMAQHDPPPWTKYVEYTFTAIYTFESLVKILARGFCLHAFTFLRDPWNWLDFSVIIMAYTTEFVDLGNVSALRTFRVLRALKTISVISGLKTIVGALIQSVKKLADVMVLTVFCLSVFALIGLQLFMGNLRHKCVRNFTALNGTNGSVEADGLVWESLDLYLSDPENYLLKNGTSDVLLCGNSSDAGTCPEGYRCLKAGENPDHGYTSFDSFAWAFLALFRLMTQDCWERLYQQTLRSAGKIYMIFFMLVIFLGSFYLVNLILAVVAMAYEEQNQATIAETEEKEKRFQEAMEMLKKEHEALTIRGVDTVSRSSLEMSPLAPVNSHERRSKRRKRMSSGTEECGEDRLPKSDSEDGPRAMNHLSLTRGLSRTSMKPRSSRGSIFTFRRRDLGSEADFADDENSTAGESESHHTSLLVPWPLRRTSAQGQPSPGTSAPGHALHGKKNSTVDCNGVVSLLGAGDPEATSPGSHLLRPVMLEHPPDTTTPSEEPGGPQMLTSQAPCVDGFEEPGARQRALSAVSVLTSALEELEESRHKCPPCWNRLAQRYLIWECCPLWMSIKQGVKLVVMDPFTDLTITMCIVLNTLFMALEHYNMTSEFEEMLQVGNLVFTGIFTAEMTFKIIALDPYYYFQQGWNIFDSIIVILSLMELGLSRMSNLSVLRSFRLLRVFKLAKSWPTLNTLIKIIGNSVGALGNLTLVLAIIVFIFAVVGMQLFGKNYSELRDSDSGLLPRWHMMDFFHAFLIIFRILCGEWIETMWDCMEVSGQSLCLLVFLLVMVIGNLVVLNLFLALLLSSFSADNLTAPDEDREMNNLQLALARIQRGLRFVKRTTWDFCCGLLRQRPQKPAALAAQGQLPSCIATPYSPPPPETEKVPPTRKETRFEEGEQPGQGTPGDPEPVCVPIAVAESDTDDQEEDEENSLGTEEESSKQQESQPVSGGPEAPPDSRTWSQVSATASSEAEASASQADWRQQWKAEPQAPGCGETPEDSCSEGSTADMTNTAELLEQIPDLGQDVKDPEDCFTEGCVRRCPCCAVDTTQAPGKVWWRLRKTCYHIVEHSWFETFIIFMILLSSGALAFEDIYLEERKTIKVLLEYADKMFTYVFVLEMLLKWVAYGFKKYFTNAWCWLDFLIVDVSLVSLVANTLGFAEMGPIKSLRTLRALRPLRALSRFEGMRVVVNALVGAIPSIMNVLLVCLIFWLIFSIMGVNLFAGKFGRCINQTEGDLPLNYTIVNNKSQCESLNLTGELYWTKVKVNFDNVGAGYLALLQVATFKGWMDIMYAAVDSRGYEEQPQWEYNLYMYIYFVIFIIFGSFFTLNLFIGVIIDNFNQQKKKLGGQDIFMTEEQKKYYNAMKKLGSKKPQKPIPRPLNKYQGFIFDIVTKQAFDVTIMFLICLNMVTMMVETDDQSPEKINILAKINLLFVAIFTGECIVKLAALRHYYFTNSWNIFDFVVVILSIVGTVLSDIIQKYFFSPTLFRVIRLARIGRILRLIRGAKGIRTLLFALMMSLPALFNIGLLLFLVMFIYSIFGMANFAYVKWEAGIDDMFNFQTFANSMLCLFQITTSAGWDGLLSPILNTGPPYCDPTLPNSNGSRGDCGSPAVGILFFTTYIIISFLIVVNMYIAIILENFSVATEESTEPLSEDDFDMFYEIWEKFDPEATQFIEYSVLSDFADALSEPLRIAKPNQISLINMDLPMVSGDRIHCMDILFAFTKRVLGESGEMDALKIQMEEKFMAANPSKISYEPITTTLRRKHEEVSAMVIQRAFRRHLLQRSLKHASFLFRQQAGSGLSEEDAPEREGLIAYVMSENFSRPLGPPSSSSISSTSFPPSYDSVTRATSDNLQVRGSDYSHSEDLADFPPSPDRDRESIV
human cardiac Na+ channel alpha subunit (SCN5A, hH1), sequence (Q07699 19-218 partner): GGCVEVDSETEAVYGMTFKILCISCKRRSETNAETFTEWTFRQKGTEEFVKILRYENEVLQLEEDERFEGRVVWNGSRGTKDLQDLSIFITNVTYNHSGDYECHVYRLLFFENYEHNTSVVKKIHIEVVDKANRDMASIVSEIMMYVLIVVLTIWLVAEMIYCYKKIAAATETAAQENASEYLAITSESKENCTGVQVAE

Question: How did the inhibition at 10 µM turn out when O=C(NCC1CCCCN1)c1cc(OCC(F)(F)F)ccc1OCC(F)(F)F (stereo not shown) [flecainide] was run?
Answer: 67.3 ± 3.5%
